According to US11066414B2, “Cot modulators and methods of use thereof” (Gilead Sciences, Inc., priority 2015, dated 2021):
Read-outs that look alike come from different tables or passages of the source.

Experiments:
[1] = tested on: TNFα; test: Cot Monocyte TNFα Cell Based Assay
[2] = target: Human Cot (Homo sapiens (Human), UniProt P41279); test: High Throughput Cot Biochemical Assay; conditions: Cot HTRF (TR-FRET) biochemical assay
[3] = read-out: EC50 TNF, LPS-stimulated human monocytes, TNFα
[4] = Homo sapiens, Monocyte, read-out: EC50 TNF, LPS-stimulated human monocytes, TNFα

Chain of Human Cot (P41279 30-397): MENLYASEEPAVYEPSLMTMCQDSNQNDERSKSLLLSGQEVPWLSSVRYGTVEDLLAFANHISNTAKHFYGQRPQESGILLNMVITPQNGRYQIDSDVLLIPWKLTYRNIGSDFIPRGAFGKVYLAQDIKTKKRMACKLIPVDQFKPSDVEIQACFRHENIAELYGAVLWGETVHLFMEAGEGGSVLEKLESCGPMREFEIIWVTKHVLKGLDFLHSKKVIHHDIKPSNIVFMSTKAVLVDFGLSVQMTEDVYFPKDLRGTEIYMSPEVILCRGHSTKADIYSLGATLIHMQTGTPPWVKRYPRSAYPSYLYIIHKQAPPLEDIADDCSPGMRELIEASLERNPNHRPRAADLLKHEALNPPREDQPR

Row | Compound | EC50 [1, 3] [µM] | IC50 ([2]; read-out: IC50 HTRF) [µM] | EC50 [1, 4] [µM] | IC50 ([2]; IC50 HTRF) [µM]
1 | CC(C)n1cc([C@@H](Nc2cc(Cl)c3ncc(C#N)c(N[C@@H](CCO)c4ccccc4)c3c2)c2cccnc2)nn1 [Example 184, 8-chloro-4-(((S)-3-hydroxy-1-phenylpropyl)amino)-6-(((S)-(1-isopropyl-1H-1,2,3-triazol-4-yl)(pyridin-3-l)methyl)amino)-quinoline-3-carbonitrile] | 0.387 | 0.008 |  | 
2 | CC(C)n1cc([C@@H](Nc2cc(Cl)c3ncc(C#N)c(N[C@H](CCO)c4ccccc4)c3c2)c2cccnc2)nn1 [Example 185, 8-chloro-4-(((R)-3-hydroxy-1-phenylpropyl)amino)-6-(((S)-(1-isopropyl-1H-1,2,3-triazol-4-yl)(pyridin-3-yl)methyl)amino)quinoline-3-carbonitrile] |  |  | 9.75 | 0.305
3 | CC(C)(O)[C@@H](Nc1c(C#N)cnc2c(Cl)cc(N[C@@H](c3cccnc3)c3c[nH]nn3)cc12)c1ccccc1 [Example 186, 8-chloro-4-(((S)-2-hydroxy-2-methyl-1-phenylpropyl)amino)-6-(((S)-pyridin-3-yl(1H-1,2,3-triazol-4-yl)methyl)amino)quinoline-3-carbonitrile] |  |  | 6.62 | 0.118
4 | CC(C)n1cc([C@@H](Nc2cc(Cl)c3ncc(C#N)c(N[C@@H](c4ccccc4)C(C)(C)O)c3c2)c2cccnc2)nn1 [Example 187, 8-chloro-4-(((S)-2-hydroxy-2-methyl-1-phenylpropyl)amino)-6-(((S)-(1-isopropyl-1H-1,2,3-triazol-4-yl)(pyridin-3-yl)methyl)amino)-quinoline-3-carbonitrile] |  |  | 2.11 | 0.067
5 | CC(C)(O)[C@H](Nc1c(C#N)cnc2c(Cl)cc(N[C@@H](c3cccnc3)c3c[nH]nn3)cc12)c1ccccc1 [Example 188, 8-chloro-4-(((R)-2-hydroxy-2-methyl-1-phenylpropyl)amino)-6-(((S)-pyridin-3-yl(1H-1,2,3-triazol-4-yl)methyl)amino)quinoline-3-carbonitrile] |  |  | > 10 | > 10
6 | N#Cc1cnc2c(Cl)cc(N[C@@H](c3cccnc3)c3cn(CCF)nn3)cc2c1Nc1cnc(F)c(F)c1 [Example 189, (S)-8-chloro-4-((5,6-difluoropyridin-3-yl)amino)-6-(((1-(2-fluoroethyl)-1H-1,2,3-triazol-4-yl)(pyridin-3-yl)methyl)amino)quinoline-3-carbonitrile] |  |  | 1.06 | 0.008
7 | CC[C@@H](Nc1c(C#N)cnc2c(Cl)cc(N[C@@H](c3cccnc3)c3cn(C4CC4)nn3)cc12)c1ccccc1 [Example 191, 8-chloro-6-(((S)-(1-cyclopropyl-1H-1,2,3-triazol-4-yl)(pyridin-3-yl)methyl)amino)-4-(((R)-1-phenylpropyl)amino)quinoline-3-carbonitrile] |  |  | 0.104 | 0.002
8 | CC[C@@H](Nc1c(C#N)cnc2c(Cl)cc(N[C@@H](c3cccnc3)c3cn(C(C)(C)C)nn3)cc12)c1ccccc1 [Example 192, 6-(((S)-(1-(tert-butyl)-1H-1,2,3-triazol-4-yl)(pyridin-3-yl)methyl)amino)-8-chloro-4-(((R)-1-phenylpropyl)arnino)quinoline-3-carbonitrile] | 0.186 | 0.003 |  | 
9 | CC[C@@H](Nc1c(C#N)cnc2c(Cl)cc(N[C@@H](c3cccnc3)c3cn(C(C)C)nn3)cc12)c1ccccc1 [Example 193, 8-chloro-6-(((S)-(1-isopropyl-1H-1,2,3-triazol-4-yl)(pyridin-3-yl)methyl)amino)-4-(((R)-1-phenylpropyl)amino)quinoline-3-carbonitrile] |  |  | 0.107 | 0.002
10 | CC[C@@H](Nc1c(C#N)cnc2c(Cl)cc(N[C@@H](c3cccnc3)c3cn(CC(F)(F)F)nn3)cc12)c1ccccc1 [Example 195, 8-chloro-4-(((R)-1-phenylpropyl)amino)-6-(((S)-pyridin-3-yl(1-(2,2,2-trifluoroethyl)-1H-1,2,3-triazol-4-yl)methyl)amino)quinoline-3-carbonitrile] |  |  | 0.132 | 0.004
11 | N#Cc1cnc2c(Cl)cc(N[C@@H](c3cccnc3)c3cn(C4COC4)nn3)cc2c1Nc1cccc(Cl)c1 [Example 196, (S)-8-chloro-4-((3-chlorophenyl)amino)-6-(((1-(oxetan-3-yl)-1H-1,2,3-triazol-4-yl)(pyridin-3-yl)methyl)amino)quinoline-3-carbonitrile] |  |  | 0.668 | 0.006

Now from value to compound:

Row | EC50 [1, 3] [µM] | IC50 ([2]; read-out: IC50 HTRF) [µM] | EC50 [1, 4] [µM] | IC50 ([2]; IC50 HTRF) [µM] | Compound
12 |  |  | 0.599 | 0.009 | C[C@@H](CF)n1cc([C@@H](Nc2cc(Cl)c3ncc(C#N)c(Nc4cnc(F)c(F)c4)c3c2)c2cccnc2)nn1 [Example 197, 8-chloro-4-((5,6-difluoropyridin-3-yl)amino)-6-(((S)-(1-((S)-1-fluoropropan-2-yl)-1H-1,2,3-triazol-4-yl)(pyridin-3-yl)methyl)amino)quinoline-3-carbonitrile]
13 |  |  | 0.982 | 0.017 | CC(C)(C)n1cc([C@@H](Nc2cc(Cl)c3ncc(C#N)c(Nc4cnc(F)c(F)c4)c3c2)c2cccnc2)nn1 [Example 198, (S)-6-(((1-(tert-butyl)-1H-1,2,3-triazol-4-yl)(pyridin-3-yl)methyl)amino)-8-chloro-4-((5,6-difluoropyridin-3-yl)amino)quinoline-3-carbonitrile]
14 |  |  | 2.52 | 0.009 | N#Cc1cnc2c(Cl)cc(N[C@@H](c3cccnc3)c3cn(C4COC4)nn3)cc2c1Nc1cnc(F)c(F)c1 [Example 199, (S)-8-chloro-4-((5,6-difluoropyridin-3-yl)amino)-6-(((1-(oxetan-3-yl)-1H-1,2,3-triazol-4-yl)(pyridin-3-yl)methyl)amino)quinoline-3-carbonitrile]
15 |  |  | 0.558 | 0.007 | N#Cc1cnc2c(Cl)cc(N[C@@H](c3cccnc3)c3cn(CCCN4CCCC4)nn3)cc2c1Nc1cnc(F)c(F)c1 [Example 200, (S)-8-chloro-4-((5,6-difluoropyridin-3-yl)amino)-6-((pyridin-3-yl(1-(3-(pyrrolidin-1-yl)propyl)-1H-1,2,3-triazol-4-yl)methyl)amino)quinoline-3-carbonitrile]
16 |  |  | 5.59 | 0.056 | N#Cc1cnc2c(Cl)cc(N[C@@H](c3cccnc3)c3cn(C4COC4)nn3)cc2c1NC1CCOCC1 [Example 201, (S)-8-chloro-6-(((1-(oxetan-3-yl)-1H-1,2,3-triazol-4-yl)(pyridin-3-yl)methyl)amino)-4-((tetrahydro-2H-pyran-4-yl)amino)quinoline-3-carbonitrile]
17 |  |  | > 10 | > 10 | CC(C)n1cc([C@@H](Nc2cc(Cl)c3ncc(C#N)c(N[C@H](c4ccccc4)C(C)(C)O)c3c2)c2cccnc2)nn1 [Example 202, 8-chloro-4-(((R)-2-hydroxy-2-methyl-1-phenylpropyl)amino)-6-(((S)-(1-isopropyl-1H-1,2,3-triazol-4-yl)(pyridin-3-yl)methyl)amino)quinoline-3-carbonitrile]
18 |  |  | 9.09 | 6.92 | COC[C@H](Nc1c(C#N)cnc2c(Cl)cc(N[C@@H](c3cccnc3)c3c[nH]nn3)cc12)c1ccccc1 [Example 203, 8-chloro-4-(((R)-2-methoxy-1-phenylethyl)amino)-6-(((S)-pyridin-3-yl(1H-1,2,3-triazol-4-yl)methyl)amino)quinoline-3-carbonitrile]
19 |  |  | > 10 | 8.51 | COC[C@H](Nc1c(C#N)cnc2c(Cl)cc(N[C@@H](c3cccnc3)c3cn(C(C)C)nn3)cc12)c1ccccc1 [Example 204, 8-chloro-6-(((S)-(1-isopropyl-1H-1,2,3-triazol-4-yl)(pyridin-3-yl)methyl)amino)-4-(((R)-2-methoxy-1-phenylethyl)amino)quinoline-3-carbonitrile]
20 |  |  | 2.05 | 0.072 | C[C@@H](n1cc([C@@H](Nc2cc(Cl)c3ncc(C#N)c(Nc4cnc(F)c(F)c4)c3c2)c2cccnc2)nn1)C(F)(F)F [Example 205, 8-chloro-4-((5,6-difluoropyridin-3-yl)amino)-6-(((S)-pyridin-3-yl(1-((R)-1,1,1-trifluoropropan-2-yl)-1H-1,2,3-triazol-4-yl)methyl)amino)quinoline-3-carbonitrile]
21 |  |  | 0.931 | 0.005 | N#Cc1cnc2c(Cl)cc(N[C@@H](c3cccnc3)c3c[nH]nn3)cc2c1Nc1cnc(F)c(F)c1 [Example 207, (S)-8-chloro-4-((5,6-difluoropyridin-3-yl)amino)-6-((pyridin-3-yl(1H-1,2,3-triazol-4-yl)methyl)amino)quinoline-3-carbonitrile]
22 |  |  | 0.424 | 0.01 | N#Cc1cnc2c(Cl)cc(N[C@@H](C3=CCOCC3)c3cn(C4COC4)nn3)cc2c1Nc1ccc(Cl)c(Cl)c1F [Example 210, (S)-8-chloro-4-((3,4-dichloro-2-fluorophenyl)amino)-6-(((3,6-dihydro-2H-pyran-4-yl)(1-(oxetan-3-yl)-1H-1,2,3-triazol-4-yl)methyl)amino)quinoline-3-carbonitrile]
23 |  |  | 0.544 | 0.016 | N#Cc1cnc2c(Cl)cc(N[C@@H](C3=CCOCC3)c3c[nH]nn3)cc2c1Nc1ccc(Cl)c(Cl)c1F [Example 211, (S)-8-chloro-4-((3,4-dichloro-2-fluorophenyl)amino)-6-(((3,6-dihydro-2H-pyran-4-yl)(1H-1,2,3-triazol-4-yl)methyl)amino)quinoline-3-carbonitrile]
24 |  |  | 9.15 | 0.044 | CC[C@@H](Nc1c(C#N)cnc2c(Cl)cc(N[C@@H](c3cccnc3)c3cn(CC[N+](C)(CC)CC)nn3)cc12)c1ccccc1 [Example 212, 2-(4-((S)-((8-chloro-3-cyano-4-(((R)-1-phenylpropyl)amino)quinolin-6-yl)amino)(pyridin-3-yl)methyl)-1H-1,2,3-triazol-1-yl)-N,N-diethyl-N-methylethan-1-aminium]
